Experimental data taken from patent publication US4073938A, “19,20-Bis-nor-prostenoic acids as hypolipemic compounds” (Istituto Biochimico Italiano di Loredana Lorenzini S.a.s., priority 1974, dated 1978).
Structures can show the parent of a compound that is named as a salt.

Assays:
[1] = Triglyceridemia and cholesterolemia in rats given alcohol 10%; assay type: in vivo, Male Sprague-Dawley rats; conditions: 1 week endoperitoneal once daily (CPIB, BBA 200 mg/kg; C83 50 mg/kg); for Cholesterolemia: controls 91.5 ± 6.6, alcohol 81.0 ± 4.6; for Triglyceridemia: controls 97.8 ± 5.1, alcohol 169.0 ± 25.0
Method: | Treatment for 1 week CPIB - BBA - 200 mg/kg endoperitoneal; C83 | 50mg/kg endoperitoneal; only one daily administration. | Male Sprague-Dawley rats 150 gr. | Groups of 6 rats.

[2] = Deepness and rapidity test (untitled table 6); assay type: in vivo, Male Sprague-Dawley rats; conditions: 200 mg/kg endoperitoneal; for Rapidity ± E.S.: controls 3.4 ± 0.3; for Deepness (mm ± E.S.): controls 74.9 ± 6.2
Method: | Treatment with the dose of 200 mg/kg endoperitoneal, one or two hours | before sacrifice. Male Sprague-Dawley rats with an average weight of 150 | gr.

[3] = LD50 by mouth in the mouse; assay type: in vivo; conditions: in vivo, po
Method: a. LD50 by mouth in the mouse about 3000 mg/kg
25 gr of XVI are dissolved in 400 ml of water with NaOH 15% to pH 9, filtered and lyophilized : 24 gr of sodium salt of XVI as a white solid are obtained, humidity (K. Fisher) 2.08%, no U.V. absorption, equivalent weight found 301.7, I.R. bands at 3400, 1765, 1565, 1460, 1420, 1378 cm^-1.
After 20 hours at 20°, the solvent is evaporated in vacuo, the residue is dissolved in 1300 ml of water treated with 120 ml of acetic acid, extracted with chloroform. After solvent evaporation, 65.1 gr of the compound XVIII are obtained, as an oil, I.R. bands at 3420, 3100, 1710 cm^-1. 35 gr of the compound XVIII are dissolved in 600 ml of water with NaOH to pH 9. The solution is filtered and lyophilized: 35.5 gr of sodium salt of 9-hydroxy-19,20-bis-nor-prostanoic acid are obtained, as white solid, humidity (K.Fisher) 1.73%, no U.V. absorption, equivalent weight found 320, I.R. bands at 3400, 3300, 1565, 1460, 1390 cm^-1, LD50 by mouth in mice about 3000 mg/kg.

ulcer induced by aspirin = test: Anti-ulcerous activity, ulcer from aspirin (9-keto sodium salt); assay type: in vivo, Female rats of the Wistar stock
Method: The anti-ulcerous activity of the compound in question is tested on an ulcer induced by aspirin and on an ulcer induced by phenyl butazone. In both models the mucous lesions are localized in the glandular section of the stomach.
Female rats of the Wistar stock weighing 150-175 g were selected. 24 hours before the start of the test the animals were made to fast, allowing water at will.
Each test group consists of 12 animals. The aspirin is administered orally in the form of a suspension (45 mg in ml of 0.5% carboxymethylcellulose for each animal). The application of the sodium salt in question takes place either intravenously (2 × 5 mg or 1 × 50 mg of substance/kg in 2 ml of 0.9% sodium chloride solution) or orally (2 × 10 mg or 2 × 100 mg of substance/kg in 2 ml of 0.5% carboxymethylcellulose suspension). The first dose is administered 10 minutes before application of the aspirin, and the second dose two and a half hours afterwards. […] The animals are killed 5 hours after application of the aspirin, the stomachs are prepared, and the number and size of the lesions is evaluated with a stereomicroscope.

[4] = tested on: ulcer induced by phenylbutazone; test: Anti-ulcerous activity, ulcer from phenylbutazone (9-keto sodium salt); assay type: in vivo, Female rats of the Wistar stock
Method: The anti-ulcerous activity of the compound in question is tested on an ulcer induced by aspirin and on an ulcer induced by phenyl butazone. In both models the mucous lesions are localized in the glandular section of the stomach. Female rats of the Wistar stock weighing 140-170 g are involved. 24 hours before the start of the test the rats are made to fast, while they are allowed water at will. Each test group consists of 12 animals. For the formation of the ulcer, 200 mg of phenylbutazone/kg in 2 ml of 0.5% gum arabic are administered to the animals orally. 10 minutes before administration of phenylbutazone, and 21/2 hours afterwards, substance in question is administered orally (in 0.5% gum arabic solution) or intravenously (in 0.9% sodium chloride solution) in variable doses (see table). The animals are killed 5 hours after administration of phenylbutazone, the stomachs are prepared and examined under a stereomicroscope, to evaluate the number and size of the lesions.

CCOC(=O)C(C)(C)Oc1ccc(Cl)cc1 [CPIB, clofibrate]
Cholesterolemia [1]: 59.7 ± 2.9 | Triglyceridemia [1]: 151.2 ± 10.4

CC(=O)Oc1ccccc1C(=O)O [aspirin, reference compound]
Rapidity ± E.S. ([2]; 1 hour before sacrifice): 1.2 ± 0.1 | Deepness (mm ± E.S.) ([2]; 1 hour before sacrifice): 17.7 ± 2.4 mm | Rapidity ± E.S. ([2]; 2 hours before sacrifice): 2.5 ± 0.2 | Deepness (mm ± E.S.) ([2]; 2 hours before sacrifice): 48.4 ± 4.4 mm

CCCCCCC12CCC(O)C1(CCCCCCC(=O)O)O2 (centres unmarked) [sodium salt of XVI, 9-hydroxy-8(12)-epoxy-19,20-bis-nor prostanoic acid]
LD50 [3]: ~1500 mg/kg

CC(=Cc1ccccc1)CC(=O)O [BBA, β-benzalbutyric acid]
Cholesterolemia [1]: 66.5 ± 1.6 | Triglyceridemia [1]: 143.4 ± 17.8

CCCCCCC1=C(CCCCCCC(=O)O)C(=O)CC1 [9-keto-19,20-bis-nor-8(12)-prostenoic acid, sodium salt]
Ulcer scale (x ± Sx) (ulcer induced by aspirin; i.v., 1 × 50 mg/kg, p<0.01): 5.08 ± 2.38 | Ulcer scale (x ± Sx) (ulcer induced by aspirin; i.v., 2 × 5 mg/kg): 11.80 ± 5.1 | inhibition of ulcerating effect of aspirin (in words) (ulcer induced by aspirin; oral and intravenous): inhibits considerably the ulcerating effect of the aspirin in both oral doses, and in the higher doses in the case of intravenous application | Ulcer scale (x ± Sx) (ulcer induced by aspirin; p.o., 2 × 10 mg/kg, controls 17.95 ± 2.98, p<0.05): 9.25 ± 2.11 | Ulcer scale (x ± Sx) (ulcer induced by aspirin; p.o., 2 × 100 mg/kg, controls 17.95 ± 2.98, p<0.01): 5.83 ± 2.11 | inhibition at 50 mg/kg ([4]; Rattus norvegicus, iv, 1 × 50 mg/kg): 42.5% | inhibition at 5 mg/kg ([4]; Rattus norvegicus, iv, 2 × 5 mg/kg): 83.1% | inhibition at 10 mg/kg ([4]; Rattus norvegicus, po, 2 × 10 mg/kg): 54.9% | inhibition at 100 mg/kg ([4]; Rattus norvegicus, po, 2 × 100 mg/kg): 80.2% | Ulcer scale (x ± Sx) ([4]; i.v., 1 × 50 mg/kg, controls 11.17 ± 2.77): 6.42 ± 3.41 | Ulcer scale (x ± Sx) ([4]; i.v., 2 × 5 mg/kg, controls 11.17 ± 2.77, p<0.05): 3.00 ± 0.92 | inhibition of ulcerating effect of phenylbutazone (in words) ([4]; orally): can inhibit the ulcerating effect of phenylbutazone depending on the doses (orally) | Ulcer scale (x ± Sx) ([4]; p.o., 2 × 10 mg/kg, controls 9.25 ± 1.81, p<0.05): 4.17 ± 0.91 | Ulcer scale (x ± Sx) ([4]; p.o., 2 × 100 mg/kg, controls 9.25 ± 1.81, p<0.01): 1.83 ± 0.69
